Several values for one entry are separate records, joined by “and”; a condition that tells them apart may be missing. Identical values can stand only once. Like-named read-outs stand apart in the source and are kept apart here.
What was measured:
[1] = Plasma pharmacokinetics of oral NMP by LCMSMS; format: in vivo, human; details: plasma, plasma
Description: Blood samples were taken from patients before NMP and at one, two, four, eight and 24 h post dose. Plasma samples (20 μl) were prepared by adding five volumes of methanol containing deuterated internal standard. The samples were vortexed then centrifuged, and the supernatant was transferred to a vial and injected onto the LCMSMS. The LCMSMS system consisted of a Shimadzu UHPLC with a SCIEX 6500QTrap, a KinetexC18 (3 × 50 mm, 2.6 μm) column and using a gradient of 0.1% formic acid and acetonitrile. The initial conditions were 0.5 ml/min and 2% acetonitrile; this was held for 1 min then increased to 20% acetonitrile at 2 min then increased to 70% acetonitrile and held for 0.5 min. Equilibration time was 0.5 min. MRMs for NMP were 100 → 58, 100 → 69, 100 → 41 and for the internal standard d9NMP 109 → 62, […]. PK analysis was performed using Pkanalix (version 2021R1. Antony, France: Lixoft SAS, 2021).

Healthy human volunteers = tested on: Healthy human volunteers; design: method as in PMID 9029058, PMID 15458014; details: up to 100 mg orally and 300 mg transdermally; cited from earlier work
[2] = design: method as in PMID 9029058; details: human, after a single 100 mg oral dose of NMP; cited from earlier work
[3] = oral 25 mg, patient RMH-01 occasion 6
[4] = oral 50 mg, average of N = 5 profiles
[5] = oral 50 mg, individual profiles, patient RMH-01 occasions 1-5
[6] = oral 100 mg, average of N = 5 profiles
[7] = oral 100 mg, individual profiles, patient RMH-02 occasions 1-5
[8] = oral 200 mg, average of N = 8 profiles
[9] = oral 200 mg, individual profiles (PMC-03, MON-04, MON-06, MON-07, PMC-08)
[10] = oral 200 mg, individual profiles (PMC-03, MON-04, PMC-05, MON-06, MON-07, PMC-08)
[11] = oral 300 mg, average of N = 3 profiles
[12] = oral 300 mg, individual profiles (PMC-09, MON-10, MON-11)
[13] = oral 400 mg, average of N = 2 profiles
[14] = oral 400 mg, individual profiles (MON-11 occasion 2, MON-12)
[15] = oral 500 mg, patient MON-11 occasion 3
[16] = oral 600 mg, patient MON-11 occasion 4
[17] = oral 700 mg, patient MON-11 occasion 5
[18] = oral 800 mg, patient MON-11 occasion 6

**Q.** Which results are given for `CN1CCCC1=O` [NMP, N-methyl-2-pyrrolidone]?
**A.** half-life ([1]; human, po, 700 mg, oral 700 mg, patient MON-11 occasion 5, read-out: Half-life (converted)): 2.35 h; Tmax ([1]; human, po, 700 mg, oral 700 mg, patient MON-11 occasion 5, read-out: Tmax): 0.5 h; Cmax ([1]; human, po, 800 mg, 800 mg dose level, oral, one patient, read-out: highest Cmax achieved): ~168 µM; AUC ([1]; human, po, 800 mg, oral 800 mg, patient MON-11 occasion 6, read-out: AUC): 90300 ng·h/mL; Cmax ([1]; human, po, 800 mg, oral 800 mg, patient MON-11 occasion 6, read-out: Cmax): 16700 ng/mL; half-life ([1]; human, po, 800 mg, oral 800 mg, patient MON-11 occasion 6, read-out: Half-life (converted)): 1.75 h; Tmax ([1]; human, po, 800 mg, oral 800 mg, patient MON-11 occasion 6, read-out: Tmax): 1 h; Cmax ([1]; human, po, 800 mg, oral, one patient, read-out: Maximum plasma concentration (Cmax), highest achieved): 16700 ng/mL; half-life ([1]; human, po, all dose levels 25-800 mg oral, N = 28 profiles, read-out: Half-life, Overall Average (converted)): 1.55 h; AUC ([1]; human, po, all dose levels 25-800 mg oral, N = 29 profiles, read-out: AUC, Overall Average): 16900 ng·h/mL; Cmax ([1]; human, po, all dose levels 25-800 mg oral, N = 29 profiles, read-out: Cmax, Overall Average): 5290 ng/mL; Tmax ([1]; human, po, all dose levels 25-800 mg oral, N = 29 profiles, read-out: Tmax, Overall Average): ~0.5 h; CL/F [1, 3]: 16.65 L⋅h⁻¹; V/F [1, 3]: 20.83 L; CL/F, Average [1, 4]: 23.62 L⋅h⁻¹; V/F, Average [1, 4]: 36.62 L; AUC [1, 5]: 1.86 h⋅mg⋅L⁻¹ and 1.88 h⋅mg⋅L⁻¹ and 2.09 h⋅mg⋅L⁻¹ and 2.18 h⋅mg⋅L⁻¹; CL/F [1, 5]: 17.68 L⋅h⁻¹ and 26.86 L⋅h⁻¹ and 26.66 L⋅h⁻¹ and 23.93 L⋅h⁻¹ and 22.97 L⋅h⁻¹; Cmax [1, 5]: 1.24 mg⋅L⁻¹ and 1.25 mg⋅L⁻¹ and 1.04 mg⋅L⁻¹ and 1.06 mg⋅L⁻¹; V/F [1, 5]: 30.85 L and 38.66 L and 41.02 L and 35.88 L and 36.67 L; half-life [1, 5]: 0.99 h and 1.07 h and 1.04 h and 1.11 h; CL/F, Average [1, 6]: 14.04 L⋅h⁻¹; V/F, Average [1, 6]: 36.98 L; AUC [1, 7]: 7.25 h⋅mg⋅L⁻¹ and 6.95 h⋅mg⋅L⁻¹ and 7.61 h⋅mg⋅L⁻¹ and 6.88 h⋅mg⋅L⁻¹; CL/F [1, 7]: 14.35 L⋅h⁻¹ and 13.79 L⋅h⁻¹ and 14.4 L⋅h⁻¹ and 13.13 L⋅h⁻¹ and 14.53 L⋅h⁻¹; Cmax [1, 7]: 2.51 mg⋅L⁻¹ and 2.52 mg⋅L⁻¹ and 2.43 mg⋅L⁻¹ and 2.65 mg⋅L⁻¹; V/F [1, 7]: 34.92 L and 41.77 L and 37.5 L and 34.02 L and 36.67 L; CL/F, Average [1, 8]: 25.52 L⋅h⁻¹; V/F, Average [1, 8]: 49.77 L; CL/F [1, 9]: 31.82 L⋅h⁻¹ and 24.02 L⋅h⁻¹ and 25.05 L⋅h⁻¹ and 20.34 L⋅h⁻¹ and 18.2 L⋅h⁻¹ and 9.1 L⋅h⁻¹ and 57.76 L⋅h⁻¹ and 17.85 L⋅h⁻¹; V/F [1, 9]: 64.35 L and 55.72 L and 43.19 L and 37.65 L and 36.79 L and 26.02 L and 87.19 L and 47.25 L; AUC [1, 10]: 6.29 h⋅mg⋅L⁻¹ and 8.33 h⋅mg⋅L⁻¹ and 7.98 h⋅mg⋅L⁻¹ and 9.83 h⋅mg⋅L⁻¹ and 5.49 h⋅mg⋅L⁻¹ and 10.99 h⋅mg⋅L⁻¹ and 21.99 h⋅mg⋅L⁻¹ and 3.46 h⋅mg⋅L⁻¹ and 11.21 h⋅mg⋅L⁻¹; Cmax [1, 10]: 2.33 mg⋅L⁻¹ and 3.98 mg⋅L⁻¹ and 4.43 mg⋅L⁻¹ and 5.05 mg⋅L⁻¹ and 2.05 mg⋅L⁻¹ and 4.95 mg⋅L⁻¹ and 7.26 mg⋅L⁻¹ and 2.64 mg⋅L⁻¹ and 3.79 mg⋅L⁻¹; CL/F, Average [1, 11]: 15.62 L⋅h⁻¹; V/F, Average [1, 11]: 33.93 L; AUC [1, 12]: 32.55 h⋅mg⋅L⁻¹ and 12.73 h⋅mg⋅L⁻¹ and 21.3 h⋅mg⋅L⁻¹; CL/F [1, 12]: 9.22 L⋅h⁻¹ and 23.57 L⋅h⁻¹ and 14.08 L⋅h⁻¹; Cmax [1, 12]: 6.89 mg⋅L⁻¹ and 6.81 mg⋅L⁻¹; V/F [1, 12]: 22.09 L and 38.59 L and 41.1 L; half-life [1, 12]: 1.13 h and 2.02 h; CL/F, Average [1, 13]: 19.53 L⋅h⁻¹; V/F, Average [1, 13]: 42.44 L; AUC [1, 14]: 15.99 h⋅mg⋅L⁻¹; CL/F [1, 14]: 14.03 L⋅h⁻¹ and 25.02 L⋅h⁻¹; Cmax [1, 14]: 7.63 mg⋅L⁻¹; V/F [1, 14]: 35.95 L and 48.93 L; half-life [1, 14]: 1.36 h; CL/F [1, 15]: 12.33 L⋅h⁻¹; V/F [1, 15]: 35.2 L; CL/F [1, 16]: 10.59 L⋅h⁻¹; V/F [1, 16]: 33.11 L; CL/F [1, 17]: 12.16 L⋅h⁻¹; V/F [1, 17]: 41.26 L; CL/F [1, 18]: 8.86 L⋅h⁻¹; V/F [1, 18]: 22.43 L; acute adverse effects after a single dose (Healthy human volunteers): no acute adverse effects; amount found in urine [2]: 0.8%

From PMC9884426, “A phase 1 clinical trial of the repurposable acetyllysine mimetic, n-methyl-2-pyrrolidone (NMP), in relapsed or refractory multiple myeloma” (Clinical Epigenetics, 2023)
